We go through ten compounds from patent publication US20170073337A1, “DIHYDROTHIAZINE AND DIHYDROOXAZINE DERIVATIVES HAVING BACE1 INHIBITORY ACTIVITY” (Shionogi & Co., Ltd., priority 2014, published 2017).

pIC50: −log10 of the molar value. ≈ marks a conversion by molar mass, not a printed value. Like-named read-outs stand apart in the source and are kept apart here.

What is called pIC50 is −log10 of the IC50, conventionally taken in molar units.

One data set has as its target T1, CYP1A2 (Homo sapiens, UniProt P05177).
T1 construct: The commercially available pooled human liver microsomes are used as an enzyme resource; from tissue; host or cells: pooled human liver microsomes
T1 sequence (P05177 1-516): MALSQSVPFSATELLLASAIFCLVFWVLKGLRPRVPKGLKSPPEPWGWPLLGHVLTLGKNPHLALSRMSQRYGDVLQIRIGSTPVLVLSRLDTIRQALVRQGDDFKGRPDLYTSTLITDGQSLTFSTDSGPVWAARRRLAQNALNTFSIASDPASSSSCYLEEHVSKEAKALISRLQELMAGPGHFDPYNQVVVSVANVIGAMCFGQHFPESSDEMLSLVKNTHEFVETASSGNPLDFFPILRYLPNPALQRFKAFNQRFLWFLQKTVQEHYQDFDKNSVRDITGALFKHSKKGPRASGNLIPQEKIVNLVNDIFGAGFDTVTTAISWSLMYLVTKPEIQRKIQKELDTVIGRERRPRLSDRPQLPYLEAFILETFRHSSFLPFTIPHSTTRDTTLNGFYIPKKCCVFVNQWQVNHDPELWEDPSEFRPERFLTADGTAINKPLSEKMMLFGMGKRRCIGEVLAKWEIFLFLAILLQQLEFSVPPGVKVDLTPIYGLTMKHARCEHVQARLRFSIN
The experiment in a line: CYP inhibition test (CYP1A2). Type of data set: in vitro ADME. Conditions: pooled human liver microsomes; 7-ethoxyresorufin O-deethylation. The method, boiled down: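 Inhibition of CYP1A2 was measured in commercially available pooled human liver microsomes (0.2 mg protein/mL) using 7-ethoxyresorufin O-deethylation with 0.5 μmol/L ethoxyresorufin. Test compound at 1, 5, 10, 20 μmol/L in […] Hepes buffer was incubated at 37° C. after NADPH addition; methanol/acetonitrile=1/1 (v/v) stopped the reaction, and resorufin was read fluorescently.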
(In general: Microsomes from liver hold many membrane-bound enzymes, among them those of drug oxidation.)

The target of the next data set is T2, CYP3A4 (Homo sapiens, UniProt P08684).
T2 construct: The commercially available pooled human liver microsomes are used as an enzyme resource; from tissue; host or cells: pooled human liver microsomes
T2 sequence (P08684 whole entry): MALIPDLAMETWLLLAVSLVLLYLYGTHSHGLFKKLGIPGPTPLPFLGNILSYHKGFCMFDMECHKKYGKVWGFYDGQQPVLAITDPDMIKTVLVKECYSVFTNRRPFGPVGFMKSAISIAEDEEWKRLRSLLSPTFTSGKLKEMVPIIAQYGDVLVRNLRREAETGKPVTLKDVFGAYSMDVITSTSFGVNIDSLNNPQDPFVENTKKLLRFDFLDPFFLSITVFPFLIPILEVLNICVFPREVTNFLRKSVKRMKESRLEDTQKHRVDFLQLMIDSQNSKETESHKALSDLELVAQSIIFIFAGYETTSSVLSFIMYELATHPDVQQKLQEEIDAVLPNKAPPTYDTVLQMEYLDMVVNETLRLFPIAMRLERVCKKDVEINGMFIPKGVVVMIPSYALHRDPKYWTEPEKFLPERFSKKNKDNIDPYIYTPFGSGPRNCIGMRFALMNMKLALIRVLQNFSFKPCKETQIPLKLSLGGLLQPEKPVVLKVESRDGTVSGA
The experiment in a line: CYP inhibition test (CYP3A4). Conditions: pooled human liver microsomes; terfenadine hydroxylation. The class given is in vitro ADME. The method, boiled down: (§1)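 Pooled human liver microsomes (0.2 mg protein/mL) with compound at 1, 5, 10 and 20 μmol/L and NADPH, at 37 °C. Marker substrates: dextromethorphan 5 μmol/L (2D6), terfenadine 1 μmol/L (3A4), S-mephenytoin 50 μmol/L (2C19), tolbutamide 100 μmol/L (2C9). Metabolites were measured by LC/MS/MS, and IC50 was derived by logistic fit of remaining activity against the DMSO control.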

The next data set can be described thus: Metabolic stability test. Type of data set: in vitro ADME. Conditions: human liver microsomes, 37° C., 30 minutes, NADPH. In short, it runs like this: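 Parent compound was measured by LC/MS/MS or SPE/MS after a methanol/acetonitrile quench and reported as % remaining, with the 0 min sample set to 100%. Incubations ran 30 min at 37 °C in pH 7.4 Tris buffer containing pooled human liver microsomes at 0.5 mg protein/mL and 1 mmol/L NADPH.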

Another data set is described as follows: Solubility test. The class given is physicochemical. The method, boiled down:
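Dissolved concentration determined by LC/MS or SPE/MS (absolute calibration) in diluted filtrates, after 2 μL of 10 mmol/L DMSO stock was added to 198 μL JP 1st or JP 2nd fluid and equilibrated either 1 h with shaking at room temperature or 16 h standing at 25 °C.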

Data set [1] has as its target T3, human ether-a-go-go related gene (hERG) channel (Homo sapiens, UniProt Q12809).
T3 construct: expressed in transfected cells; host or cells: CHO cells
The experiment in a line: hERG test. The class given is cell-based. Conditions: % inhibition of IKr tail peak current at 3 uM; CHO cells expressing hERG. In short, it runs like this: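 IKr was recorded from hERG-expressing CHO cells by automated whole-cell patch clamp at a holding potential of −80 mV. A −50 mV leak step was followed by a 2 s depolarization to +20 mV and a 2 s repolarization to −50 mV, when current was measured.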
(In general: Block of hERG is tested as a sign of cardiac risk.)

The next data set deals with T4, CYP2C19 (Homo sapiens, UniProt P33261).
T4 construct: The commercially available pooled human liver microsomes are used as an enzyme resource; from tissue; host or cells: pooled human liver microsomes
T4 sequence (P33261 whole entry): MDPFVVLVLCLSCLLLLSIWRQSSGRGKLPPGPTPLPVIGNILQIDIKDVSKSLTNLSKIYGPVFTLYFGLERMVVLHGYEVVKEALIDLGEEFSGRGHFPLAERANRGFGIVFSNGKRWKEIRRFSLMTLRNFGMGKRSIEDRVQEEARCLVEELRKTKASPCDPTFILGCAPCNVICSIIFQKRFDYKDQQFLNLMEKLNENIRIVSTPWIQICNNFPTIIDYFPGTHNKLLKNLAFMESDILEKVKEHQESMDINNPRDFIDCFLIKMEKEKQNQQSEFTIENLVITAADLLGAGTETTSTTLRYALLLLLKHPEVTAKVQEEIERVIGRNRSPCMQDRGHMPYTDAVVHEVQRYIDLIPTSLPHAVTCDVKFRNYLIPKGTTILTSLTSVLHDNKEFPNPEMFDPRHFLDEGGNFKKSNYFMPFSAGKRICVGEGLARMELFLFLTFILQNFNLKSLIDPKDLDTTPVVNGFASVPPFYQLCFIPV
The experiment in a line: CYP inhibition test (CYP2C19). The class given is in vitro ADME. Conditions: pooled human liver microsomes; mephenytoin 4′-hydroxylation. The method, boiled down:
as §1

Where [2] appears, read: JP 1st fluid, 25 °C, pH 1.2, simulated gastric fluid, kinetic from dmso stock, read-out: JP1.
Setting [3] is: JP 2nd fluid A, 25 °C, pH 6.8, aqueous buffer, kinetic from dmso stock, read-out: JP2_μM.
Where [4] appears, read: JP 1st fluid, pH 1.2, simulated gastric fluid, kinetic from dmso stock, read-out: JP1.
Setting [5] is: solubility in JP 2nd fluid B, 1% DMSO, *2: shaken for 1 hour at room temperature, read-out: JP2_μM.

T3 sequence (Q12809 whole entry): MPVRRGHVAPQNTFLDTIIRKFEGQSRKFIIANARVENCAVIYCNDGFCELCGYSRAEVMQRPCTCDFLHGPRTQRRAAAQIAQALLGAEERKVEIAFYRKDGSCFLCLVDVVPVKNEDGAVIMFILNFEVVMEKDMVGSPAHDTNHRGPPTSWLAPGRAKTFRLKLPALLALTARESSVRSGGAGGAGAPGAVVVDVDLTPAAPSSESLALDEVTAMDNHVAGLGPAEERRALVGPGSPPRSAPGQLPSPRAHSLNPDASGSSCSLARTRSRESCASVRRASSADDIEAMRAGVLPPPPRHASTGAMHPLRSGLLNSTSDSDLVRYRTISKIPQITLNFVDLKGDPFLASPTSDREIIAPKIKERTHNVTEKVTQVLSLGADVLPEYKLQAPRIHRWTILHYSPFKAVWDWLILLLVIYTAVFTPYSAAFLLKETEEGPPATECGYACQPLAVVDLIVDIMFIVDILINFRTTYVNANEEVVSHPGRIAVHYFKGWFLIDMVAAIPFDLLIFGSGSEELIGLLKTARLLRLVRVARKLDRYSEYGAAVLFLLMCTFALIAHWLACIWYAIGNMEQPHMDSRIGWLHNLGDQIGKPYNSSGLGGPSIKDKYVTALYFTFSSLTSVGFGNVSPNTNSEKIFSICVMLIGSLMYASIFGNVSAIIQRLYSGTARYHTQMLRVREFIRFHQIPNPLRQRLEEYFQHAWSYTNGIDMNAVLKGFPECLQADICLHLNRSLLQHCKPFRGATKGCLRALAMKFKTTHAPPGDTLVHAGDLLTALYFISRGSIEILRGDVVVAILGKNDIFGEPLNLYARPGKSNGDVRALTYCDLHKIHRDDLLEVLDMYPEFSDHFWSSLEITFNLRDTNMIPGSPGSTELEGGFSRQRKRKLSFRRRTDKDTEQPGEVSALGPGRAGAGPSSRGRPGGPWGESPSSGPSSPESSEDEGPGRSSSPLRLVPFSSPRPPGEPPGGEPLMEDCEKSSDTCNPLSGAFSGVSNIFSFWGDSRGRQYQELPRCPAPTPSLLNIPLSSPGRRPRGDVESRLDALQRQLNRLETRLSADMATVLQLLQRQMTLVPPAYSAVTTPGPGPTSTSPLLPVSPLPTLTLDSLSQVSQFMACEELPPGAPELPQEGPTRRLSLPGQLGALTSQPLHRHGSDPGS

Turning to `C[C@H]1SC(N)=N[C@](C)(c2nc(NC(=O)c3ccc(F)cn3)ccc2F)[C@H]1F` [Compound I-2], the pIC50 on CYP1A2, on CYP3A4 and at CYP2C19 was no more than 4.70 each time. Further, in the data set “Metabolic stability test”, the remaining % was 88%. In addition, the solubility kinetic at 16 h was 23.3 µM (≈ 9.21 µg/mL) in the data set “Solubility test” (setting [2]) and greater than 50 µM in “Solubility test” (setting [3]). For the same compound, the “hERG_3 uM_%” value in data set [1] is reported as 38.7%.

On to `C[C@H]1SC(N)=N[C@](C)(c2nc(NC(=O)c3cnc(OCF)cn3)ccc2F)[C@H]1F` [Compound I-3], for which the pIC50 at CYP1A2, on CYP3A4 and against CYP2C19 was no more than 4.70 throughout. For the same compound, in the data set “Metabolic stability test”, the remaining % is given as 81.4%. The solubility kinetic at 16 h in the data set “Solubility test” (setting [2]) and in the data set “Solubility test” (setting [3]) was greater than 50 µM each time. Further, in data set [1], the “hERG_3 uM_%” value is listed as 45.5%.

In the case of `C[C@]1(c2cc(NC(=O)c3ccc(F)cn3)ccc2F)N=C(N)O[C@H](CF)[C@@H]1OCC(F)(F)F` [Compound I-11], the pIC50 on CYP1A2, on CYP3A4 and against CYP2C19 was no more than 4.70 each time. Further, the remaining % in “Metabolic stability test” is recorded as 104%. Moreover, the values for the solubility kinetic at 16 h in “Solubility test” (setting [2]) and in “Solubility test” (setting [3]) were 42.7 µM (≈ 20.3 µg/mL) and greater than 50 µM, respectively. Besides, the “hERG_3 uM_%” value in data set [1] turned out to be 42.5%.

For `C[C@]1(c2cc(NC(=O)c3cnc(OCF)cn3)ccc2F)N=C(N)O[C@H](CF)[C@@H]1OCC(F)(F)F` [Compound I-12], the pIC50 against CYP1A2, on CYP3A4 and at CYP2C19 was no more than 4.70 throughout. Moreover, the remaining % in “Metabolic stability test” came out at 97.8%. Besides, the solubility kinetic at 16 h in “Solubility test” (setting [2]) is 36.1 µM (≈ 18.3 µg/mL); in “Solubility test” (setting [3]), greater than 50 µM. Further, in data set [1], the “hERG_3 uM_%” value is 35.5%.

In the case of `C[C@H](F)[C@H]1OC(N)=N[C@](C)(c2cc(NC(=O)c3ccc(C#N)cn3)ccc2F)[C@H]1F` [Compound I-13], the pIC50 on CYP1A2, against CYP3A4 and against CYP2C19 was no more than 4.70 each time. In addition, the remaining % in “Metabolic stability test” was determined as 101%. The results for the solubility kinetic at 16 h in the data set “Solubility test” (setting [2]) and in the data set “Solubility test” (setting [3]) were 39.6 µM (≈ 16.5 µg/mL) and greater than 50 µM, respectively. The “hERG_3 uM_%” value in data set [1] is on record as 52.8%.

In the case of `C[C@@H](F)[C@H]1OC(N)=N[C@](C)(c2cc(NC(=O)c3ccc(C#N)cn3)ccc2F)[C@H]1F` [Compound I-15], the pIC50 on CYP1A2, against CYP3A4 and against CYP2C19 was no more than 4.70 in each case. Further, the remaining % in the data set “Metabolic stability test” is given as 104%. The solubility kinetic at 1 h in the data set “Solubility test” (setting [4]) is 31.9 µM (≈ 13.3 µg/mL); in “Solubility test” (JP 2nd fluid A, pH 6.8, aqueous buffer, kinetic from dmso stock, read-out: JP2_μM), greater than 50 µM. In addition, the “hERG_3 uM_%” value in data set [1] is reported as 57%.

As for `CO[C@H]1[C@@H](CF)OC(N)=N[C@]1(C)c1cc(NC(=O)c2ccc(C#N)cn2)ccc1Cl` [Compound I-18], the pIC50 against CYP1A2, against CYP3A4 and against CYP2C19 was no more than 4.70 in each case. The remaining % in “Metabolic stability test” was determined as 71.4%. Further, the solubility kinetic at 16 h was 36 µM (≈ 15.5 µg/mL) in the data set “Solubility test” (setting [2]) and greater than 50 µM in the data set “Solubility test” (setting [3]). In addition, the “hERG_3 uM_%” value in data set [1] worked out at 44.8%.

In the case of `C[C@H]1[C@@H](C(F)F)OC(N)=N[C@]1(C)c1cc(NC(=O)c2ccc(C#N)cn2)ccc1F` [Compound I-31], the pIC50 at CYP3A4 and at CYP2C19 was no more than 4.70 each time. Besides, the remaining % in the data set “Metabolic stability test” is recorded as 85%. Moreover, the solubility kinetic at 16 h in “Solubility test” (setting [2]) is 38.8 µM (≈ 16.2 µg/mL); in the data set “Solubility test” (setting [3]), greater than 50 µM. For the same compound, the “hERG_3 uM_%” value in data set [1] is on record as 27.4%.

For `C[C@H]1SC(N)=N[C@](C)(c2cc(NC(=O)c3ncc(C#N)cc3Cl)ccc2F)[C@H]1F` [Compound I-64], the pIC50 against CYP3A4 and against CYP2C19 was no more than 4.70 in each case. Also, the remaining % in “Metabolic stability test” worked out at 80.3%. The solubility kinetic at 1 h in “Solubility test” (setting [4]) is greater than 50 µM. For the same compound, in the data set “Solubility test” (setting [5]), the solubility kinetic at 16 h was greater than 50 µM. In data set [1], the “hERG_3 uM_%” value is given as 41.3%.

For `C[C@H]1SC(N)=N[C@](C)(c2cc(NC(=O)c3cnc(C(F)F)cn3)ccc2F)[C@H]1F` [Compound I-65], the pIC50 at CYP3A4 and at CYP2C19 was no more than 4.70 each time. Also, the remaining % in “Metabolic stability test” was determined as 96.5%. Moreover, in “Solubility test” (setting [4]), the solubility kinetic at 1 h was greater than 50 µM. Further, in the data set “Solubility test” (setting [5]), the solubility kinetic at 16 h is greater than 50 µM. Moreover, the “hERG_3 uM_%” value in data set [1] stood at 28%.
